Test results as given in ChEMBL document CHEMBL1201862, “PubChem BioAssay data set” (2004).
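Compound exposure: 48 hours, 5 concentrations, 96-well plates. GI50 marks 50% less growth.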 Active and inactive are the calls of the source. Rule as the data show it: active = GI50 up to about 1.1 µM and inactive = higher.

What was measured:
Assay in all cases: NCI tumour cell line growth inhibition, 48 h
[1] = system: HCT-116
[2] = system: HL-60
[3] = system: HOP-92
[4] = system: K562
[5] = system: M14
[6] = system: MOLT-4
[7] = system: OVCAR-4
[8] = system: OVCAR-8
[9] = system: SF-539
[10] = system: SK-MEL-28
[11] = system: TK-10
[12] = system: UACC-62
[13] = system: UO-31
[14] = system: CCRF-CEM
[15] = system: Malme-3M
[16] = system: RXF 393
[17] = system: SF-295
[18] = system: SNB-75
[19] = system: EKVX
[20] = system: NCI-H522

Measured: GI50

CC(C)C[C@@H](NC(=O)[C@@H](Cc1cccc2ccccc12)NC(=O)N1CCOCC1)B(O)O
inactive: [1] 33.2 µM | [2] 38.7 µM | [3] 37.1 µM | [4] 57.9 µM | [5] 28.2 µM | [6] 31.5 µM | [7] > 100 µM | [8] > 100 µM | [9] 43.4 µM | [10] 25.2 µM | [11] 31.9 µM | [12] 63.1 µM | [13] > 100 µM

CC(C)(C)[Si](C)(C)OCC1OC(n2cnc3c(N)ncnc32)CC1O (stereo not drawn)
inactive: [14] 22.6 µM | [1] > 100 µM | [2] 20 µM | [4] 21.8 µM | [5] 44.2 µM | [6] 16.1 µM | [15] > 100 µM | [7] 71.4 µM | [8] 87.9 µM | [16] 20.6 µM | [17] > 100 µM | [10] > 100 µM | [18] > 100 µM | [11] > 100 µM | [12] 36.9 µM | [13] 13 µM

Cc1ccc(Nc2nc(C)c(C(=O)CC(=O)C(=O)Nc3c(C)cccc3C(C)(C)C)s2)cc1
inactive: [14] > 100 µM | [19] > 100 µM | [1] > 100 µM | [2] > 100 µM | [3] > 100 µM | [4] > 100 µM | [5] > 100 µM | [6] > 100 µM | [20] > 100 µM | [7] > 100 µM | [8] 79.3 µM | [16] > 100 µM | [17] > 100 µM | [9] > 100 µM | [11] > 100 µM | [12] > 100 µM | [13] > 100 µM

COc1cc2c(cc1OC)CCN=C2
inactive: [14] > 100 µM | [1] > 100 µM | [2] > 100 µM | [3] > 100 µM | [5] > 100 µM | [6] > 100 µM | [15] > 100 µM | [7] > 100 µM | [8] > 100 µM | [16] 56.6 µM | [17] > 100 µM | [10] > 100 µM | [18] > 100 µM | [11] > 100 µM | [12] > 100 µM | [13] > 100 µM

C[n+]1c(-c2ccc(/C=N/Nc3n[nH]c(=S)n3N/N=C/c3ccc(-c4cn5ccccc5[n+]4C)cc3)cc2)cn2ccccc21
inactive: [14] > 100 µM | [19] > 100 µM | [1] > 100 µM | [2] > 100 µM | [4] > 100 µM | [5] > 100 µM | [6] > 100 µM | [20] > 100 µM | [7] > 100 µM | [8] > 100 µM | [17] > 100 µM | [9] > 100 µM | [10] > 100 µM | [18] > 100 µM | [11] > 100 µM | [13] > 100 µM

CNC(=O)CNC(=O)CCC(=O)N(C)C
inactive: [14] > 100 µM | [19] > 100 µM | [1] > 100 µM | [2] > 100 µM | [3] > 100 µM | [4] > 100 µM | [5] > 100 µM | [6] > 100 µM | [15] > 100 µM | [20] > 100 µM | [8] > 100 µM | [17] > 100 µM | [9] > 100 µM | [10] > 100 µM | [18] > 100 µM | [11] > 100 µM | [12] > 100 µM | [13] > 100 µM

O=c1ccc2nc3cc(Br)ccc3sc-2c1
inactive: [14] 12.9 µM | [19] > 100 µM | [1] > 100 µM | [2] 13.5 µM | [3] > 100 µM | [4] 22.4 µM | [5] > 100 µM | [6] 21.7 µM | [15] > 100 µM | [20] 56.8 µM | [7] 29.4 µM | [17] > 100 µM | [9] > 100 µM | [10] > 100 µM | [18] > 100 µM | [11] > 100 µM | [12] 30.9 µM | [13] > 100 µM

CCCCCCNC(=O)c1cc(C#Cc2cc(OC)ccc2OC)ccc1OC
inactive: [19] 58.9 µM | [3] 9.77 µM | [4] 3.92 µM | [5] 17.5 µM | [6] 4.84 µM | [20] 6.15 µM | [7] > 100 µM | [8] > 100 µM | [17] 51.9 µM | [10] 3.04 µM | [11] > 100 µM | [13] 62.1 µM

Cc1cc(-c2nc3cccc(O)c3s2)ccc1N
inactive: [14] 25.8 µM | [19] 15.7 µM | [1] 27.3 µM | [2] 22.3 µM | [3] 43.8 µM | [4] 45.4 µM | [5] 16.2 µM | [6] 28.2 µM | [8] 24.2 µM | [16] > 100 µM | [17] 28.8 µM | [9] 57.4 µM | [10] 51.4 µM | [18] > 100 µM | [11] 33.6 µM | [12] 16.3 µM | [13] 4.43 µM

CN1C/C(=C\c2cccs2)C(O)/C(=C/c2cccs2)C1 (stereo not drawn)
inactive: [14] 27 µM | [19] > 100 µM | [1] 72.4 µM | [3] 20.4 µM | [4] 57.8 µM | [5] > 100 µM | [6] 25.2 µM | [15] 50.1 µM | [20] 35.1 µM | [7] 35.5 µM | [8] > 100 µM | [16] > 100 µM | [17] > 100 µM | [10] > 100 µM | [11] > 100 µM | [12] > 100 µM | [13] 97.3 µM

CCCCC(=O)c1c(O)nc2sccn2c1=O
inactive: [14] > 10 µM | [19] > 10 µM | [1] > 10 µM | [2] > 10 µM | [5] > 10 µM | [6] > 10 µM | [15] > 10 µM | [20] > 10 µM | [7] > 10 µM | [8] > 10 µM | [16] > 10 µM | [17] > 10 µM | [9] > 10 µM | [10] > 10 µM | [18] > 10 µM | [11] > 10 µM | [12] > 10 µM | [13] > 10 µM

CC1(C)OC2CC(=O)OCC23C1CC(=O)C1(C)C3CCC2(C)C(c3ccoc3)OC(=O)C3OC321 (stereo not drawn)
inactive: [14] > 125 µM | [19] > 58.1 µM | [1] > 125 µM | [2] 101 µM | [4] 78.9 µM | [6] > 125 µM | [15] 123 µM | [20] > 125 µM | [7] > 125 µM | [8] 11.7 µM | [16] > 117 µM | [17] > 125 µM | [9] > 117 µM | [10] > 125 µM | [18] 64.7 µM | [12] > 125 µM | [13] > 125 µM

Cc1ccc2c(c1)C(=O)N(N(C)C)CC(=O)N2
inactive: [14] > 100 µM | [19] > 100 µM | [1] > 100 µM | [2] > 100 µM | [3] > 100 µM | [4] > 100 µM | [5] > 100 µM | [6] > 100 µM | [15] > 100 µM | [20] > 100 µM | [7] > 100 µM | [8] > 100 µM | [17] > 100 µM | [9] > 100 µM | [10] > 100 µM | [18] 35.2 µM | [11] > 100 µM | [12] > 100 µM | [13] > 100 µM

Nc1ccc2c(c1)C(=O)N(O)C2=O
inactive: [14] > 100 µM | [19] > 100 µM | [1] > 100 µM | [2] > 100 µM | [4] > 100 µM | [5] > 100 µM | [6] > 100 µM | [15] > 100 µM | [7] > 100 µM | [16] > 100 µM | [17] > 100 µM | [9] > 100 µM | [10] > 100 µM | [18] > 100 µM | [11] > 100 µM | [12] > 100 µM | [13] > 100 µM

CC(C)(C)c1cc(O)ccc1O [E319]
inactive: [14] 4.92 µM | [19] > 100 µM | [1] > 57.9 µM | [2] 9.73 µM | [3] > 67.5 µM | [4] > 68.5 µM | [5] > 100 µM | [6] 10.3 µM | [15] > 19.3 µM | [20] 5.57 µM | [7] > 56.4 µM | [8] > 63.7 µM | [17] > 100 µM | [9] > 100 µM | [10] > 100 µM | [18] 7.71 µM | [11] 8.32 µM | [12] > 100 µM | [13] > 58.6 µM

Nc1nc(Cl)nc2c1ncn2C1CCC(CO)O1 (stereo not drawn)
inactive: [14] 3.46 µM | [1] > 100 µM | [3] > 100 µM | [5] > 100 µM | [6] 35.2 µM | [15] > 100 µM | [7] > 100 µM | [8] 41.6 µM | [16] > 100 µM | [17] > 100 µM | [10] > 100 µM | [18] > 100 µM | [11] > 100 µM | [12] > 100 µM | [13] > 100 µM

CN(C)/C(=N\C#N)NCc1ccccc1
inactive: [19] > 100 µM | [1] > 100 µM | [3] > 100 µM | [5] > 100 µM | [20] > 100 µM | [7] > 100 µM | [8] > 100 µM | [17] > 100 µM | [9] > 100 µM | [10] > 100 µM | [11] > 100 µM | [12] > 100 µM | [13] > 100 µM
